Test results published in the NIST ThermoML archive (doi:10.1021/acs.jced.9b00846).
Numbers after ± are expanded uncertainties.

Conditions: Liquid, Vibrating tube method

CC(C)C(C)C(C)C [2,3,4-trimethylpentane]
Conditions | mass density [kg/m3]
323.15 K, 34994 kPa | 725.9 ± 1
323.15 K, 39992 kPa | 729.4 ± 1
323.15 K, 45046 kPa | 732.8 ± 1
323.15 K, 49980 kPa | 736 ± 1.1
323.15 K, 54968 kPa | 739.1 ± 1.1
323.15 K, 59988 kPa | 742.1 ± 1.1
323.15 K, 65068 kPa | 745 ± 1.1
328.15 K, 94 kPa | 691.3 ± 0.8
328.15 K, 4971 kPa | 696.6 ± 0.8
328.15 K, 9997 kPa | 701.7 ± 0.9
328.15 K, 14959 kPa | 706.4 ± 0.9
328.15 K, 19969 kPa | 710.9 ± 0.9
328.15 K, 25055 kPa | 715.1 ± 0.9
328.15 K, 29960 kPa | 719 ± 1
328.15 K, 34966 kPa | 722.7 ± 1
328.15 K, 40013 kPa | 726.3 ± 1
328.15 K, 45034 kPa | 729.8 ± 1
328.15 K, 50015 kPa | 733.1 ± 1.1
328.15 K, 54973 kPa | 736.2 ± 1.1
328.15 K, 59955 kPa | 739.2 ± 1.1
328.15 K, 64992 kPa | 742.2 ± 1.1
333.15 K, 95 kPa | 687.1 ± 0.8
333.15 K, 4934 kPa | 692.6 ± 0.8
333.15 K, 9973 kPa | 697.9 ± 0.9
333.15 K, 14973 kPa | 702.8 ± 0.9
333.15 K, 19993 kPa | 707.4 ± 0.9
333.15 K, 24959 kPa | 711.6 ± 0.9
333.15 K, 29952 kPa | 715.7 ± 1
333.15 K, 34974 kPa | 719.5 ± 1
333.15 K, 39961 kPa | 723.2 ± 1
333.15 K, 44999 kPa | 726.7 ± 1
333.15 K, 49992 kPa | 730.1 ± 1.1
333.15 K, 54798 kPa | 733.2 ± 1.1
333.15 K, 59952 kPa | 736.4 ± 1.1
333.15 K, 65050 kPa | 739.5 ± 1.1
338.15 K, 115 kPa | 683.1 ± 0.8
338.15 K, 4978 kPa | 688.9 ± 0.8
338.15 K, 9970 kPa | 694.3 ± 0.9
338.15 K, 14966 kPa | 699.3 ± 0.9
338.15 K, 19960 kPa | 703.9 ± 0.9
338.15 K, 24994 kPa | 708.4 ± 0.9
338.15 K, 30030 kPa | 712.5 ± 1
338.15 K, 34973 kPa | 716.3 ± 1
338.15 K, 39979 kPa | 720 ± 1
338.15 K, 45024 kPa | 723.6 ± 1
338.15 K, 50019 kPa | 727.1 ± 1.1
338.15 K, 54928 kPa | 730.3 ± 1.1
338.15 K, 59953 kPa | 733.5 ± 1.1
338.15 K, 64998 kPa | 736.6 ± 1.2
343.15 K, 109 kPa | 678.8 ± 0.8
343.15 K, 5084 kPa | 684.9 ± 0.9
343.15 K, 9963 kPa | 690.4 ± 0.9
343.15 K, 15039 kPa | 695.6 ± 0.9
343.15 K, 20010 kPa | 700.4 ± 0.9
343.15 K, 24998 kPa | 704.9 ± 0.9
343.15 K, 30054 kPa | 709.2 ± 1
343.15 K, 35048 kPa | 713.2 ± 1
343.15 K, 40023 kPa | 717 ± 1
343.15 K, 44967 kPa | 720.6 ± 1
343.15 K, 50023 kPa | 724.2 ± 1.1
343.15 K, 54967 kPa | 727.5 ± 1.1
343.15 K, 59995 kPa | 730.7 ± 1.1
343.15 K, 64954 kPa | 733.8 ± 1.2
348.15 K, 112 kPa | 674.5 ± 0.8
348.15 K, 5011 kPa | 680.8 ± 0.9
348.15 K, 10066 kPa | 686.6 ± 0.9
348.15 K, 14992 kPa | 691.9 ± 0.9
348.15 K, 19955 kPa | 696.8 ± 0.9
348.15 K, 25042 kPa | 701.5 ± 0.9
348.15 K, 29986 kPa | 705.8 ± 1
348.15 K, 35004 kPa | 709.9 ± 1
348.15 K, 40002 kPa | 713.9 ± 1
348.15 K, 44996 kPa | 717.6 ± 1
348.15 K, 49994 kPa | 721.1 ± 1.1
348.15 K, 54995 kPa | 724.6 ± 1.1
348.15 K, 60005 kPa | 727.9 ± 1.1
348.15 K, 65009 kPa | 731 ± 1.2
353.15 K, 109 kPa | 670.1 ± 0.8
353.15 K, 4963 kPa | 676.6 ± 0.9
353.15 K, 9919 kPa | 682.5 ± 0.9
353.15 K, 15039 kPa | 688.2 ± 0.9
353.15 K, 19995 kPa | 693.2 ± 0.9
353.15 K, 24983 kPa | 698 ± 0.9
353.15 K, 29960 kPa | 702.4 ± 1
353.15 K, 34985 kPa | 706.7 ± 1
353.15 K, 39983 kPa | 710.7 ± 1
353.15 K, 45037 kPa | 714.5 ± 1
353.15 K, 49989 kPa | 718.1 ± 1.1
353.15 K, 54953 kPa | 721.6 ± 1.1
353.15 K, 59909 kPa | 724.9 ± 1.1
353.15 K, 65052 kPa | 728.2 ± 1.2
358.15 K, 118 kPa | 665.9 ± 0.8
358.15 K, 4955 kPa | 672.5 ± 0.9
358.15 K, 9916 kPa | 678.7 ± 0.9
358.15 K, 15035 kPa | 684.5 ± 0.9
358.15 K, 19946 kPa | 689.6 ± 0.9
358.15 K, 25037 kPa | 694.6 ± 0.9
358.15 K, 29963 kPa | 699.2 ± 1
358.15 K, 35027 kPa | 703.4 ± 1
358.15 K, 40010 kPa | 707.5 ± 1
358.15 K, 44955 kPa | 711.4 ± 1.1
358.15 K, 50023 kPa | 715.1 ± 1.1
358.15 K, 54980 kPa | 718.7 ± 1.1
358.15 K, 59952 kPa | 722 ± 1.1
358.15 K, 65021 kPa | 725.4 ± 1.2
363.15 K, 101 kPa | 661.3 ± 0.8
363.15 K, 4941 kPa | 668.3 ± 0.9
363.15 K, 9928 kPa | 674.7 ± 0.9
363.15 K, 15005 kPa | 680.6 ± 0.9
363.15 K, 19958 kPa | 686 ± 0.9
363.15 K, 24923 kPa | 691 ± 0.9
363.15 K, 29983 kPa | 695.8 ± 1
363.15 K, 34922 kPa | 700.1 ± 1
363.15 K, 39992 kPa | 704.4 ± 1
363.15 K, 45038 kPa | 708.4 ± 1.1
363.15 K, 49985 kPa | 712.2 ± 1.1
363.15 K, 54981 kPa | 715.8 ± 1.1
363.15 K, 59985 kPa | 719.3 ± 1.1
363.15 K, 65038 kPa | 722.6 ± 1.2
